Where “and” joins values, the source holds several entries; their conditions need not be identical. Identical values can stand only once. ± gives the expanded uncertainty stated by the source.
Conditions: Capillary rise

With CC(C)C [2-methylpropane] the surface tension liquid-gas (255.02 K) was 14.85 ± 0.16 mN/m, the surface tension liquid-gas (256.94 K) was 14.69 ± 0.16 mN/m and the surface tension liquid-gas (258.83 K) was 14.36 ± 0.16 mN/m and 14.37 ± 0.16 mN/m. The surface tension liquid-gas (261.09 K) was 14.17 ± 0.16 mN/m, the surface tension liquid-gas (262.95 K) was 14.02 ± 0.16 mN/m and 14.03 ± 0.16 mN/m and the surface tension liquid-gas (264.86 K) was 13.7 ± 0.16 mN/m and 13.72 ± 0.16 mN/m. For the same compound, the surface tension liquid-gas (267.09 K) was 13.46 ± 0.16 mN/m and 13.44 ± 0.16 mN/m, the surface tension liquid-gas (268.86 K) was 13.16 ± 0.16 mN/m and the surface tension liquid-gas (270.9 K) was 12.95 ± 0.16 mN/m and 12.97 ± 0.16 mN/m. The surface tension liquid-gas (273.38 K) was 12.68 ± 0.16 mN/m, the surface tension liquid-gas (275.39 K) was 12.57 ± 0.16 mN/m and 12.6 ± 0.16 mN/m and the surface tension liquid-gas (277.16 K) was 12.29 ± 0.16 mN/m. The surface tension liquid-gas (279.34 K) was 12.06 ± 0.16 mN/m, the surface tension liquid-gas (281.3 K) was 11.77 ± 0.16 mN/m and 11.75 ± 0.16 mN/m and the surface tension liquid-gas (283.29 K) was 11.62 ± 0.16 mN/m. The surface tension liquid-gas (285.43 K) was 11.28 ± 0.16 mN/m, the surface tension liquid-gas (287.5 K) was 11.14 ± 0.16 mN/m and 11.13 ± 0.16 mN/m and the surface tension liquid-gas (289.31 K) was 10.86 ± 0.16 mN/m. For the same compound, the surface tension liquid-gas (291.65 K) was 10.74 ± 0.16 mN/m and 10.72 ± 0.16 mN/m, the surface tension liquid-gas (293.66 K) was 10.5 ± 0.16 mN/m and the surface tension liquid-gas (295.75 K) was 10.28 ± 0.16 mN/m. The surface tension liquid-gas (297.83 K) was 10.01 ± 0.16 mN/m and 10.05 ± 0.16 mN/m, the surface tension liquid-gas (299.48 K) was 9.84 ± 0.16 mN/m and the surface tension liquid-gas (301.43 K) was 9.57 ± 0.16 mN/m and 9.6 ± 0.16 mN/m. For the same compound, the surface tension liquid-gas (303.91 K) was 9.37 ± 0.16 mN/m and 9.38 ± 0.16 mN/m, the surface tension liquid-gas (305.75 K) was 9.14 ± 0.16 mN/m and the surface tension liquid-gas (307.41 K) was 8.98 ± 0.16 mN/m. The surface tension liquid-gas (309.49 K) was 8.75 ± 0.16 mN/m and 8.77 ± 0.16 mN/m, the surface tension liquid-gas (311.81 K) was 8.52 ± 0.16 mN/m and 8.51 ± 0.16 mN/m and the surface tension liquid-gas (313.49 K) was 8.29 ± 0.16 mN/m and 8.31 ± 0.16 mN/m. For the same compound, the surface tension liquid-gas (315.82 K) was 8.05 ± 0.16 mN/m and 8.09 ± 0.16 mN/m, the surface tension liquid-gas (317.75 K) was 7.9 ± 0.16 mN/m and 7.91 ± 0.16 mN/m and the surface tension liquid-gas (319.32 K) was 7.69 ± 0.16 mN/m and 7.68 ± 0.16 mN/m. For the same compound, the surface tension liquid-gas (321.96 K) was 7.45 ± 0.16 mN/m and 7.46 ± 0.16 mN/m, the surface tension liquid-gas (323.71 K) was 7.25 ± 0.16 mN/m and 7.22 ± 0.16 mN/m and the surface tension liquid-gas (325.37 K) was 7.02 ± 0.16 mN/m and 7.04 ± 0.16 mN/m. The surface tension liquid-gas (327.8 K) was 6.79 ± 0.16 mN/m and 6.81 ± 0.16 mN/m, the surface tension liquid-gas (329.49 K) was 6.71 ± 0.16 mN/m and the surface tension liquid-gas (331.68 K) was 6.42 ± 0.16 mN/m. The surface tension liquid-gas (333.28 K) was 6.29 ± 0.16 mN/m.
With CCC [propane] the surface tension liquid-gas (253.08 K) was 12.98 ± 0.16 mN/m, the surface tension liquid-gas (254.8 K) was 12.7 ± 0.16 mN/m and 12.69 ± 0.16 mN/m and the surface tension liquid-gas (256.89 K) was 12.38 ± 0.16 mN/m. For the same compound, the surface tension liquid-gas (258.68 K) was 12.21 ± 0.16 mN/m and 12.2 ± 0.16 mN/m, the surface tension liquid-gas (260.71 K) was 11.94 ± 0.16 mN/m and 11.97 ± 0.16 mN/m and the surface tension liquid-gas (262.7 K) was 11.56 ± 0.16 mN/m and 11.58 ± 0.16 mN/m. For the same compound, the surface tension liquid-gas (265.09 K) was 11.31 ± 0.16 mN/m and 11.32 ± 0.16 mN/m, the surface tension liquid-gas (267.09 K) was 11.06 ± 0.16 mN/m and 11.05 ± 0.16 mN/m and the surface tension liquid-gas (268.88 K) was 10.81 ± 0.16 mN/m. The surface tension liquid-gas (270.72 K) was 10.52 ± 0.16 mN/m and 10.53 ± 0.16 mN/m, the surface tension liquid-gas (273.2 K) was 10.17 ± 0.16 mN/m and the surface tension liquid-gas (275.38 K) was 9.97 ± 0.16 mN/m. For the same compound, the surface tension liquid-gas (277.43 K) was 9.71 ± 0.16 mN/m, the surface tension liquid-gas (279.39 K) was 9.4 ± 0.16 mN/m and the surface tension liquid-gas (281.48 K) was 9.14 ± 0.16 mN/m and 9.15 ± 0.16 mN/m. For the same compound, the surface tension liquid-gas (289.27 K) was 8.14 ± 0.16 mN/m and 8.15 ± 0.16 mN/m, the surface tension liquid-gas (293.85 K) was 7.49 ± 0.16 mN/m and the surface tension liquid-gas (295.73 K) was 7.23 ± 0.16 mN/m. The surface tension liquid-gas (297.4 K) was 7.04 ± 0.16 mN/m, the surface tension liquid-gas (299.41 K) was 6.85 ± 0.16 mN/m and 6.87 ± 0.16 mN/m and the surface tension liquid-gas (301.45 K) was 6.62 ± 0.16 mN/m. For the same compound, the surface tension liquid-gas (303.54 K) was 6.33 ± 0.16 mN/m and 6.34 ± 0.16 mN/m, the surface tension liquid-gas (305.17 K) was 6.21 ± 0.16 mN/m and 6.22 ± 0.16 mN/m and the surface tension liquid-gas (308.01 K) was 5.86 ± 0.16 mN/m. The surface tension liquid-gas (310.73 K) was 5.55 ± 0.16 mN/m, the surface tension liquid-gas (314.39 K) was 5.06 ± 0.16 mN/m and the surface tension liquid-gas (315.71 K) was 4.85 ± 0.16 mN/m and 4.84 ± 0.16 mN/m. The surface tension liquid-gas (317.64 K) was 4.62 ± 0.16 mN/m and 4.63 ± 0.16 mN/m, the surface tension liquid-gas (319.43 K) was 4.42 ± 0.16 mN/m and the surface tension liquid-gas (321.41 K) was 4.25 ± 0.16 mN/m and 4.26 ± 0.16 mN/m. For the same compound, the surface tension liquid-gas (323.34 K) was 4.01 ± 0.16 mN/m and 4.02 ± 0.16 mN/m, the surface tension liquid-gas (325.32 K) was 3.8 ± 0.16 mN/m and 3.81 ± 0.16 mN/m and the surface tension liquid-gas (327.4 K) was 3.6 ± 0.16 mN/m and 3.62 ± 0.16 mN/m. For the same compound, the surface tension liquid-gas (329.79 K) was 3.32 ± 0.16 mN/m and 3.31 ± 0.16 mN/m, the surface tension liquid-gas (331.79 K) was 3.12 ± 0.16 mN/m and 3.13 ± 0.16 mN/m and the surface tension liquid-gas (333.3 K) was 2.94 ± 0.15 mN/m and 2.95 ± 0.15 mN/m.
